Laboratory results published in article PMC8391421, “Identification of Novel Positive Allosteric Modulators of Neurotrophin Receptors for the Treatment of Cognitive Dysfunction” (Cells, 2021).
pEC50: −log10 of the molar value. “Also recorded” adds a separate entry of the source.

Columns and labels:
[1] = biological target: T1, fibroblast growth factor receptor (FGFR1) (Homo sapiens, UniProt P11362); assay: FGFR1 PathHunter cell-based assay (U2OS-FGFR1)
T1 construct: host or cells: U2OS (human osteosarcoma)
Description: (§1) The human osteosarcoma cell lines U2OS-TrkA/p75, U2OS-TrkB/p75, U2OS-TrkC/p75, U2OS-ratTrkA/p75, U2OS-FGFR1 (fibroblast growth factor receptor 1) as well as the human embryonic kidney cell line HEK293-IGF1R (insulin-like growth factor 1 receptor) from DiscoverX, Birmingham, United Kingdom, were used in the in vitro experiments. Eagle’s minimum essential medium (EMEM) ATCC #30-2003 from LGC Standards AB, Borås, Sweden; Leibovitz’s L15 medium, RPMI1640, fetal bovine serum, horse serum, penicillin/streptomycin, and Hoechst dye purchased from Invitrogen, Gothenburg, Sweden, were also used. Black poly-D-lysine coated 384-well plates (Viewplate) were purchased from PerkinElmer, Upplands Väsby, Sweden, and white 384-well assay plates(3570) were purchased from Corning, Amsterdam, Netherlands. […] Recombinant intracellular domain (ICD) of TrkA (08-186) and single site biotinylated activated (08-486-20N) or non-activated TrkA (08-486-23N) were obtained from Carna Biosciences, Odense, Denmark. […]
(§2) U2OS cells were maintained subconfluent in EMEM supplemented with 10% FBS and penicillin/streptomycin/hygromycin and G418. […] The functional (complemented) β-gal will hydrolyze a substrate to generate a luminescence signal. The generated luminescence was read using an EnVision plate reader from PerkinElmer, Upplands Väsby, Sweden, or an ID5 plate reader from Molecular Devices, Berkshire, RG41 5TS UK. […]

[2] = biological target: T2, insulin-like growth factor 1 receptor (IGF1R) (Homo sapiens, UniProt P08069); assay: IGF1R PathHunter cell-based assay (HEK293-IGF1R)
T2 construct: host or cells: HEK293
Description: as §1, §2

TrkA = biological target: T3, TrkA (Homo sapiens, UniProt P04629); assay: TrkA PathHunter cell-based assay (U2OS-TrkA/p75)
T3 construct: host or cells: U2OS (human osteosarcoma), co-expressing p75 and SHC-1 fused to the enzyme acceptor
Description: U2OS cells were maintained subconfluent in EMEM supplemented with 10% FBS and penicillin/streptomycin/hygromycin and G418. One day prior to the experiment, 5000 cells of EMEM supplemented with 0.5% horse serum were seeded in each well of a 384-well white plate. The assay was performed as previously described. Briefly, the TrkA or TrkB cell-based PathHunter® assays use enzyme fragment complementation (EFC) technology for the complementation of two β-galactosidase (β-gal) fragments in order to study protein–protein interactions. Upon activation with ligand, TrkA or TrkB are phosphorylated on several tyrosine residues, including tyrosine 490, leading to an interaction with SHC-1. In the PathHunter® assays, the Trk-receptors are fused to an enzyme donor tag, and SHC-1 is fused to a larger part of β-gal called an enzyme acceptor. The interactions between the recombinant enzyme donor, i.e., the Trk-receptor, with an enzyme acceptor, i.e., SHC-1, leads to an active β-gal enzyme. The functional (complemented) β-gal will hydrolyze a substrate to generate a luminescence signal. The generated luminescence was read using an EnVision plate reader from PerkinElmer, Upplands Väsby, Sweden, or an ID5 plate reader from Molecular Devices, Berkshire, RG41 5TS UK. […] Min- and Max-control wells were included on each plate.
Both Toltrazuril and Ponazuril are registered veterinary products prescribed for parasitic infections in animals. […] The activation of Trk-receptors leads to an intracellular interaction between the Trk-receptor and SHC-1 and thereby to the complementation of β-gal, which will render in a functional enzyme. β-gal will hydrolyze a substrate to generate luminescence, which is proportional to the number of activated receptors.

C57BL/6J mice = assay: Morris water maze; type: in vivo, mouse
Description: Male C57BL/6J mice (n = 8/group) from Taconic, Lille Skensved, Denmark, 7–8 weeks of age at arrival, were used in experiments that were predominantly performed as described previously. Vehicle or ACD855 (3 mg/kg; formulated in 20% DMSO in 0.1 M sodium phosphate buffer pH 8.0) was administered daily for the first four days (Day 1–4) through subcutaneous (s.c.) injections (10 mL/kg body weight). During the behavioral training days (Day 5–10), ACD855 or vehicle was administered s.c. 60 min prior to training. Moreover, during the behavioral training days, scopolamine (0.3 mg/kg) or vehicle was administered s.c. 30 min prior to training.

T3 sequence (P04629 33-796): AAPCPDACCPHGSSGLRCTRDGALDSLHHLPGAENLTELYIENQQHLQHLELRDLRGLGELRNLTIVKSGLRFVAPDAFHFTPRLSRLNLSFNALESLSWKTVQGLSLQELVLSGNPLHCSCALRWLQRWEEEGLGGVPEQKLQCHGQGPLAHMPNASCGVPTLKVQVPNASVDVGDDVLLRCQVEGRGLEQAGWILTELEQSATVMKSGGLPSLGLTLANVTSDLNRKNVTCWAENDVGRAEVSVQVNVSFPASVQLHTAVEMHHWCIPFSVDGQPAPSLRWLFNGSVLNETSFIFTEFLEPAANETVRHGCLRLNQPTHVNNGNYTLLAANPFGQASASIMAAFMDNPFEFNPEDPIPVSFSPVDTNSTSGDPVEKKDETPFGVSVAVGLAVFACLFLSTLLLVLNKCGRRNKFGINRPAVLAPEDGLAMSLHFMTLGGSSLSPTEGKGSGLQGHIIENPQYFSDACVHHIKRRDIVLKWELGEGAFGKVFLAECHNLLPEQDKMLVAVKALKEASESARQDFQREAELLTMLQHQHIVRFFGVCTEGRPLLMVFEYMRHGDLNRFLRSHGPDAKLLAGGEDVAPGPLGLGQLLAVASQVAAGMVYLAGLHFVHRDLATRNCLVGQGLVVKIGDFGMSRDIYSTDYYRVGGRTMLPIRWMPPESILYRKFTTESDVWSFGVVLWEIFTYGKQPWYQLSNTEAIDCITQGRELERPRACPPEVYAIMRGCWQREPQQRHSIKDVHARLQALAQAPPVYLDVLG
T2 sequence (P08069 31-1367): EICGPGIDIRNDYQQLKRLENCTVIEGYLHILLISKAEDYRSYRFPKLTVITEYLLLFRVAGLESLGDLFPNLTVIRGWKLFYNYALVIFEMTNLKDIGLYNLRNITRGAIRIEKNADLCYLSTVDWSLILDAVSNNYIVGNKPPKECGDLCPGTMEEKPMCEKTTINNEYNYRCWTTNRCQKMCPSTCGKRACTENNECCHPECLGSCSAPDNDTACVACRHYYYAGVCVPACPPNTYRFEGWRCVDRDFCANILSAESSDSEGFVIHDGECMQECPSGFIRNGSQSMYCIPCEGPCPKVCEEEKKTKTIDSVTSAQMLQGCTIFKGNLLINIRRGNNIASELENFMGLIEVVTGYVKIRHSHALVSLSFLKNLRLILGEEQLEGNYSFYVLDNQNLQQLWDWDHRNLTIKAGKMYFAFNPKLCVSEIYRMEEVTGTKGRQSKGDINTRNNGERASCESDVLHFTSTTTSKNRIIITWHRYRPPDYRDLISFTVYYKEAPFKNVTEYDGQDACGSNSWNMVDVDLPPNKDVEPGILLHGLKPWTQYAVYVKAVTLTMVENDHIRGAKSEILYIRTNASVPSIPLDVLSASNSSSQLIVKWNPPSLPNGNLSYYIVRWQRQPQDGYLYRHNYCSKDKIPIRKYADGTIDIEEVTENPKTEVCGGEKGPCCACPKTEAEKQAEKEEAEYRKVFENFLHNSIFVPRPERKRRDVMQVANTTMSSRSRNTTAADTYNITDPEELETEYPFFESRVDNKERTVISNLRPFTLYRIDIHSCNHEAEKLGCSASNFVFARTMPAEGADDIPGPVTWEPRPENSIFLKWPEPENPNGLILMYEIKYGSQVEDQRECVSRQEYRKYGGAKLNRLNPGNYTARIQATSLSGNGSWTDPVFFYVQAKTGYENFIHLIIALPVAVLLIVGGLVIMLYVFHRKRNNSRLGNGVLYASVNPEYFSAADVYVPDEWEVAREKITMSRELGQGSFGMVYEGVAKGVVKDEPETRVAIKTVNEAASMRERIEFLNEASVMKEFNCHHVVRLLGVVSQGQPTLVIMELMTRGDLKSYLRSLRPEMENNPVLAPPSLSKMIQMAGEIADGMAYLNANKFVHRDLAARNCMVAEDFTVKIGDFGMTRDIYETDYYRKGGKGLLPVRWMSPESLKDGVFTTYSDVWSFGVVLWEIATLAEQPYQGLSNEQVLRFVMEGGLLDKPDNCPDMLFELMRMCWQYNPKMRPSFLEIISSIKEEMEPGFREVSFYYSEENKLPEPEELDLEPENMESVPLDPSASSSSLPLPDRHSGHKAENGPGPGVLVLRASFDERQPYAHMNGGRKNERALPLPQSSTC
T1 sequence (P11362 22-822): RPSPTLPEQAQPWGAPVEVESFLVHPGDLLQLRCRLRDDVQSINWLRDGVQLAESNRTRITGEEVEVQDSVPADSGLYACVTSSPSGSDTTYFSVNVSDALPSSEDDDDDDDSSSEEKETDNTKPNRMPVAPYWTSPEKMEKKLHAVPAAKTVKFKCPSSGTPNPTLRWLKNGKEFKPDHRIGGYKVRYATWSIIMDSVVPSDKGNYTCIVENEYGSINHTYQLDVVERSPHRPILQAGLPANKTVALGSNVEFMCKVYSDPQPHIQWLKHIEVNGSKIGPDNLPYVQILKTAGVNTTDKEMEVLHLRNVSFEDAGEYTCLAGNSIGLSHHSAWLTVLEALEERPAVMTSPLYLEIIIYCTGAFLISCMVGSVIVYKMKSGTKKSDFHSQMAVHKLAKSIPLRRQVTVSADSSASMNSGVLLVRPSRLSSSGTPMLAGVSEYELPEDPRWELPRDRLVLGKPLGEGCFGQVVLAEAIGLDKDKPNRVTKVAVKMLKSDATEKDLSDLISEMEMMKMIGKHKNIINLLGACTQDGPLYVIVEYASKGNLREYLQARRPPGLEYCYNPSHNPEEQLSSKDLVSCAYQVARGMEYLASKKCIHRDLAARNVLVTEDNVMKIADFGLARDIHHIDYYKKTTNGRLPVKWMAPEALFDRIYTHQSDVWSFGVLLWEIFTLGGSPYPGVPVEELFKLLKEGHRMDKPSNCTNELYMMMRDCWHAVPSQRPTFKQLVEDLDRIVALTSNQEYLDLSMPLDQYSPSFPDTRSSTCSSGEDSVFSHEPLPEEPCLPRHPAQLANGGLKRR

Cc1cc(-n2c(=O)[nH]c(=O)n(C)c2=O)ccc1Oc1ccc(S(=O)(=O)C(F)(F)F)cc1 [ACD855, Toltrazuril-sulfone]
pEC50 [1]: 6.10
FGFR1 Effect (efficacy) [1]: 44%
pEC50 [2]: 6.05
IGF1R Effect (efficacy) [2]: 25%
modulation of TrkA activity over NGF dose-response curve (TrkA; 0.3, 1 and 3 µM compound with a wide range of NGF concentrations): positively modulated TrkA activity
pEC50 (TrkA; PathHunter cell-based assay): 5.72
TrkA Effect (efficacy) (TrkA; PathHunter cell-based assay): 144%
activation of TrkA-receptor by compound itself (TrkA; without ligand, 100% = 30 ng/mL ligand): 45%
effect of compound by itself on cognitive function (swim latency, Day 1) (C57BL/6J mice; 3 mg/kg s.c., no scopolamine, vs vehicle): seemed to improve cognitive function compared to vehicle; also recorded: improved cognitive function compared to vehicle
effect on scopolamine-induced cognitive impairment (swim latency) (C57BL/6J mice; 3 mg/kg s.c., scopolamine 0.3 mg/kg): significantly blocked; also recorded: completely blocked
retention test (probe trial) (C57BL/6J mice; control vs treated groups): only an improvement trend
swim speed (C57BL/6J mice; control vs treated groups): no significant differences
